Source: PubChem BioAssay AID330 (DTP/NCI, 2004)
Where “and” joins values, the source holds several entries; their conditions need not be identical. Equal values may be shown once. Inconclusive results and toxic doses are left out. Rule for the calls: active = survival T/C of 150% or more; inactive = T/C below 125% in these data.

Test system: P388 leukemia ip, CD2F1 mice, survival T/C
Assay: NCI In Vivo Anticancer Drug Screen. Data for tumor model P388 Leukemia (intraperitoneal) in CD2F1 (CDF1) mice
Settings: endpoint: median survival time, higher = longer survival
In short: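 Mice carrying the transplanted tumor received test compound or vehicle. Survival was recorded in each group, and the value is the treated-group measurement divided by that of the vehicle-treated control group.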

[1] = dose: 50.0 mg/kg/injection, schedule: Q01DX009 (ip), vehicle: saline
[2] = dose: 100.0 mg/kg/injection, schedule: Q01DX009 (ip), vehicle: saline
[3] = dose: 200.0 mg/kg/injection, schedule: Q01DX009 (ip), vehicle: saline
[4] = dose: 50.0 mg/kg/injection, schedule: Q01DX005 (ip), vehicle: saline with Tween-80

Measured: T/C

FC(F)(F)c1ccc2nc3c4ccccc4c4ccccc4c3nc2c1
inactive: [1] 116 % of control | [2] 107 % of control | [3] 101 % of control

CN1CCN(C(=O)CCSc2nc(-c3ccccc3)c(-c3ccccc3)o2)CC1
inactive: [1] 110 % of control | [2] 110 % of control

c1c[nH]c(C23CC4CC(CC(C4)C2)C3)n1
inactive: dose: 12.5 mg/kg/injection, schedule: Q01DX005 (ip), vehicle: saline with Tween-80 100 % of control | dose: 25.0 mg/kg/injection, schedule: Q01DX005 (ip), vehicle: saline with Tween-80 100 % of control | [4] 110 % of control and 94 % of control

O=C1Nc2ccccc2C12OCCS2 (configuration not stated)
inactive: dose: 60.0 mg/kg/injection, schedule: Q01DX005 (ip), vehicle: saline with Tween-80 91 % of control | dose: 120.0 mg/kg/injection, schedule: Q01DX005 (ip), vehicle: saline with Tween-80 98 % of control | dose: 240.0 mg/kg/injection, schedule: Q01DX005 (ip), vehicle: saline with Tween-80 92 % of control

O=C1OCC2OCCC12 (configuration not stated)
inactive: dose: 50.0 mg/kg/injection, schedule: Q01DX005 (ip), vehicle: saline 100 % of control | dose: 100.0 mg/kg/injection, schedule: Q01DX005 (ip), vehicle: saline 100 % of control | dose: 200.0 mg/kg/injection, schedule: Q01DX005 (ip), vehicle: saline 101 % of control

C1=[N+]2N=C(SCc3ccccc3)S[B-]2([C+]2CCCCC2)Oc2ccccc21 (configuration not stated)
inactive: [4] 91 % of control | dose: 100.0 mg/kg/injection, schedule: Q01DX005 (ip), vehicle: saline with Tween-80 94 % of control | dose: 200.0 mg/kg/injection, schedule: Q01DX005 (ip), vehicle: saline with Tween-80 91 % of control

C/C(=N\N=C(N)N)c1cccc(/C(C)=N/N=C(N)N)n1
inactive: dose: 6.25 mg/kg/injection, schedule: Q01DX009 (ip), vehicle: saline with Tween-80 101 % of control | dose: 25.0 mg/kg/injection, schedule: Q01DX009 (ip), vehicle: saline with Tween-80 110 % of control | dose: 50.0 mg/kg/injection, schedule: Q01DX009 (ip), vehicle: saline with Tween-80 90 % of control

COC1CC(NC(C)=O)C(OC(=O)c2ccccc2)C(CBr)O1 (configuration not stated)
inactive: dose: 1.56 mg/kg/injection, schedule: Q01DX009 (ip), vehicle: other 94 % of control | dose: 3.13 mg/kg/injection, schedule: Q01DX009 (ip), vehicle: other 94 % of control | dose: 6.25 mg/kg/injection, schedule: Q01DX009 (ip), vehicle: other 106 % of control | dose: 12.5 mg/kg/injection, schedule: Q01DX009 (ip), vehicle: other 108 % of control | dose: 25.0 mg/kg/injection, schedule: Q01DX009 (ip), vehicle: other 100 % of control and 106 % of control | dose: 50.0 mg/kg/injection, schedule: Q01DX009 (ip), vehicle: other 101 % of control | dose: 100.0 mg/kg/injection, schedule: Q01DX009 (ip), vehicle: other 104 % of control | dose: 200.0 mg/kg/injection, schedule: Q01DX009 (ip), vehicle: other 97 % of control | dose: 400.0 mg/kg/injection, schedule: Q01DX009 (ip), vehicle: other 92 % of control

O=C(O)CCCCCCCCCO
inactive: dose: 25.0 mg/kg/injection, schedule: Q01DX009 (ip), vehicle: saline 109 % of control | [1] 115 % of control | [2] 100 % of control | [3] 100 % of control

Cn1c2ccccc2c2nnc(N/N=C/c3cccnc3)nc21
inactive: dose: 100.0 mg/kg/injection, schedule: Q04DX002 (ip), vehicle: saline with Tween-80 91 % of control | dose: 200.0 mg/kg/injection, schedule: Q04DX002 (ip), vehicle: saline with Tween-80 86 % of control and 90 % of control | dose: 400.0 mg/kg/injection, schedule: Q04DX002 (ip), vehicle: saline with Tween-80 99 % of control and 90 % of control and 95 % of control

C[CH2][Ge]([CH2]C)[CH2]C.C[CH2][Ge]([CH2]C)[CH2]C.[CH3][Ge][CH3]
inactive: [1] 90 % of control | [2] 90 % of control | [3] 92 % of control

CC(C)(C)OC(=O)NCC(=O)NC(CSC(c1ccccc1)c1ccccc1)C(=O)NCC(=O)O (configuration not stated)
inactive: dose: 50.0 mg/kg/injection, schedule: Q01DX005 (ip), vehicle: Klucel (hydroxypropylcellulose) (HPC) 105 % of control | dose: 100.0 mg/kg/injection, schedule: Q01DX005 (ip), vehicle: Klucel (hydroxypropylcellulose) (HPC) 99 % of control

C[C@]12CCC(=O)C=C1CC[C@@H]1[C@@H]2[C@@H](O)C[C@@]2(C)[C@H]1CC[C@]2(O)C(=O)CF
inactive: dose: 100.0 mg/kg/injection, schedule: Q01DX009 (ip), vehicle: saline with Tween-80 100 % of control | dose: 100.0 mg/kg/injection, schedule: Q04DX003 (ip), vehicle: saline with Tween-80 109 % of control | dose: 200.0 mg/kg/injection, schedule: Q01DX009 (ip), vehicle: saline with Tween-80 100 % of control | dose: 200.0 mg/kg/injection, schedule: Q04DX003 (ip), vehicle: saline with Tween-80 109 % of control | dose: 400.0 mg/kg/injection, schedule: Q01DX009 (ip), vehicle: saline with Tween-80 100 % of control | dose: 400.0 mg/kg/injection, schedule: Q04DX003 (ip), vehicle: saline with Tween-80 109 % of control
